Measured values published in paper PMC3759959, “Design, Synthesis and Antiviral Activity Studies of Schizonepetin Derivatives” (International Journal of Molecular Sciences, 2013).

Columns and labels:
[1] = system: Vero cells; test: Cytotoxicity by CPE assay in Vero cells; format: cell-based; settings: 72 h
Protocol: (§1) The cytotoxicity was evaluated by cytopathic effect (CPE) inhibition assay. Vero cells were seeded into 96-well plates. After cells had been incubated for 24 h at 37 °C in 5% CO2, they were exposed to drugs with two-fold serial dilutions. Untreated Vero cells were used as controls. All cultures were incubated again in 5% CO2 at 37 °C for 72 h. The cells were examined microscopically for the cytotoxicity effects. Then TC50 were calculated by the Reed-Muench method.

[2] = system: MDCK cells; test: Cytotoxicity against MDCK cells by CPE assay; format: cell-based
Protocol: as §1
The procedures for Anti-H3N2 studies and cytotoxicity against MDCK cells in vitro by CPE inhibition assay were similar to Anti HSV-1 studies and cytotoxicity against Vero cells.

[3] = system: influenza virus H3N2; test: Anti-H3N2 CPE inhibition assay in MDCK cells; settings: for IC50: Influenza A virus, H3N2, MDCK, read-out: IC50, antiviral activity against H3N2 virus; for antiviral activity against influenza virus H3N2 (in words): in vitro, CPE inhibition
[4] = system: HSV-1 virus; test: Anti HSV-1 CPE inhibition assay in Vero cells; settings: for IC50: Human alphaherpesvirus 1, Vero, 72 h, read-out: IC50, antiviral activity against HSV-1 virus; for antiviral activity against HSV-1 (in words): in vitro, CPE inhibition
[5] = cytotoxicity, Vero cells, Reed-Muench method

Structure (SMILES) | TC50 (Antiviral activity against HSV-1 virus section) [1, 5] [µM] | TC50 (Antiviral activity against H3N2 virus section) [2] [µM] | IC50 [3] [µM] | IC50 [4] [µM] | TI (TC50/IC50), HSV-1 virus [4] | antiviral activity against HSV-1 (in words) [4] | TC50 (Antiviral activity against HSV-1 virus section) ([1]; African green monkey) [µM] | antiviral activity against influenza virus H3N2 (in words) [3] | TI (TC50/IC50), H3N2 virus [3]
CO[C@@]12C[C@H](C)CCC1=C(C)C(=O)O2 [M1, (6R,7aR)-7a-Methoxy-3,6-Dimethyl-5,6,7,7a-Tetrahydrobenzofuran-2(4H)-One] | 366.8 | 298.5 | > 39.1 | > 11.5 |  |  |  |  | 
CC(=O)O[C@@]12C[C@H](C)CCC1=C(C)C(=O)O2 [M4, (6R,7aR)-3,6-Dimethyl-2-oxo-2,4,5,6,7,7a-Hexahydrobenzofuran-7a-Yl Acetate] | 374.6 | 319.2 | > 39.1 | 93.8 | 4.0 | obvious antiviral activity |  |  | 
Nc1nc2c(ncn2COCCO)c(=O)[nH]1 [Aciclovir, reference compound] |  |  |  | 4.9 | >136.4 |  | >666.0 |  | 
CC1=C2CC[C@@H](C)C[C@]2(OC(=O)c2cccc(I)c2)OC1=O [M29, (6R,7aS)-3,6-Dimethyl-2-oxo-2,4,5,6,7,7a-Hexahydrobenzofuran-7a-yl 3-Iodobenzoate] | 45.4 | 71.1 | > 39.1 | > 11.5 |  |  |  | little effect | 
CC1=C2CC[C@@H](C)C[C@]2(OC(=O)c2ccc([N+](=O)[O-])cc2)OC1=O [M9, (6R,7aS)-3,6-Dimethyl-2-Oxo-2,4,5,6,7,7a-Hexahydrobenzofuran-7a-yl 4-Nitrobenzoate] | 216.0 | 216.0 | > 39.1 | > 11.5 |  |  |  |  | 
CC1=C2CC[C@@H](C)C[C@@]2(OC(=O)c2cccnc2)OC1=O [M21, (6R,7aS)-3,6-Dimethyl-2-Oxo-2,4,5,6,7,7a-Hexahydrobenzofuran-7a-yl Nicotinate] | 439.0 | 180.5 | > 39.1 | > 11.5 |  |  |  |  | 
CC1=C2CC[C@@H](C)C[C@]2(OC(=O)c2cccc(F)c2)OC1=O [M28, (6R,7aS)-3,6-Dimethyl-2-Oxo-2,4,5,6,7,7a-Hexahydrobenzofuran-7a-yl 3-Fluorobenzoate] | 170.4 | 96.4 | 34.5 | > 11.5 |  |  |  | high antiviral activity | 2.8
CC1=C2CC[C@@H](C)C[C@@]2(OC(=O)c2ccccc2Br)OC1=O [M34, (6R,7aS)-3,6-Dimethyl-2-Oxo-2,4,5,6,7,7a-Hexahydrobenzofuran-7a-yl 2-Bromobenzoate] | 80.3 | 71.0 | > 39.1 | 17.1 | 4.7 | obvious antiviral activity |  | little effect | 
CC1=C2CC[C@@H](C)C[C@]2(OC(=O)c2ccc(Br)cc2)OC1=O [M33, (6R,7aS)-3,6-Dimethyl-2-Oxo-2,4,5,6,7,7a-Hexahydrobenzofuran-7a-yl 4-Bromobenzoate] | 80.3 | 71.0 | 13.7 | > 11.5 |  | little effect |  | high antiviral activity | 5.2
CC1=C2CC[C@@H](C)C[C@]2(OC(=O)c2ccc(I)cc2)OC1=O [M10, (6R,7aS)-3,6-Dimethyl-2-Oxo-2,4,5,6,7,7a-Hexahydrobenzofuran-7a-yl 4-Iodobenzoate] | 44.2 | 41.3 | > 39.1 | > 11.5 |  |  |  | little effect | 
CC1=C2CC[C@@H](C)C[C@]2(OC(=O)c2cccc(Br)c2)OC1=O [M31, (6R,7aS)-3,6-Dimethyl-2-Oxo-2,4,5,6,7,7a-Hexahydrobenzofuran-7a-yl 3-Bromobenzoate] | 80.3 | 80.3 | > 39.1 | > 11.5 |  | little effect |  | little effect | 
CC1=C2CC[C@@H](C)C[C@]2(OC(=O)c2cccc(Cl)c2)OC1=O [M25, (6R,7aS)-3,6-Dimethyl-2-Oxo-2,4,5,6,7,7a-Hexahydrobenzofuran-7a-yl 3-Chlorobenzoate] | 11.5 | 80.8 | > 39.1 | > 11.5 |  |  |  | little effect | 
CC1=C2CC[C@@H](C)C[C@]2(OC(=O)c2ccc(Cl)cc2)OC1=O [M11, (6R,7aS)-3,6-Dimethyl-2-Oxo-2,4,5,6,7,7a-Hexahydrobenzofuran-7a-yl 4-Chlorobenzoate] | 47.1 | 47.1 | > 39.1 | > 11.5 |  |  |  | little effect | 
CC1=C2CC[C@@H](C)C[C@]2(OC(=O)c2ccccc2)OC1=O [M8, (6R,7aS)-3,6-Dimethyl-2-Oxo-2,4,5,6,7,7a-Hexahydrobenzofuran-7a-yl Benzoate] | 24.8 | 54.2 | > 39.1 | > 11.5 |  |  |  |  | 
CC1=C2CC[C@@H](C)C[C@]2(OC(=O)c2ccc(F)cc2)OC1=O [M22, (6R,7aS)-3,6-Dimethyl-2-Oxo-2,4,5,6,7,7a-Hexahydrobenzofuran-7a-yl 4-Fluorobenzoate] | 87.8 | 60.5 | > 39.1 | > 11.5 |  |  |  | little effect | 
NC(=O)c1ncn([C@@H]2O[C@H](CO)[C@@H](O)[C@H]2O)n1 [Ribavirin, reference compound] |  |  | 1020 |  |  |  |  |  | 
